Results from US20050282743A1, “Molecular interactions in cells” (Arbor Vita Corporation, priority 2001, published 2005).
Ends that are not written are not given here. Peptide text beside a SMILES is read from it. * marks the point of attachment. Biotin = O=C1N[C@H]2[C@H](CS[C@H]2CCCCC(=O)*)N1

Assays:
Test in all cases: G' assay (10 uM PL peptide), results of TABLE 7 and TABLE 12
Type in all cases: binding
[1] = target: T1, PDZ protein (GST-PDZ fusion) (Homo sapiens, UniProt Q8NI35); details: PDZ INADL
T1 construct: made in house; host or cells: E. coli (DH5alpha, BL21 or JM109)
How it was run: (§1)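 Binding classes derive from A450 nm of bound biotin-tagged PL peptide. A score of 5 needs A450 above 4 in more than two repeats.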

[2] = target: T2, PDZ protein (GST-PDZ fusion) (Homo sapiens, UniProt Q02410)
T2 construct: made in house; host or cells: E. coli (DH5alpha, BL21 or JM109)
T2 sequence (Q02410 1-837): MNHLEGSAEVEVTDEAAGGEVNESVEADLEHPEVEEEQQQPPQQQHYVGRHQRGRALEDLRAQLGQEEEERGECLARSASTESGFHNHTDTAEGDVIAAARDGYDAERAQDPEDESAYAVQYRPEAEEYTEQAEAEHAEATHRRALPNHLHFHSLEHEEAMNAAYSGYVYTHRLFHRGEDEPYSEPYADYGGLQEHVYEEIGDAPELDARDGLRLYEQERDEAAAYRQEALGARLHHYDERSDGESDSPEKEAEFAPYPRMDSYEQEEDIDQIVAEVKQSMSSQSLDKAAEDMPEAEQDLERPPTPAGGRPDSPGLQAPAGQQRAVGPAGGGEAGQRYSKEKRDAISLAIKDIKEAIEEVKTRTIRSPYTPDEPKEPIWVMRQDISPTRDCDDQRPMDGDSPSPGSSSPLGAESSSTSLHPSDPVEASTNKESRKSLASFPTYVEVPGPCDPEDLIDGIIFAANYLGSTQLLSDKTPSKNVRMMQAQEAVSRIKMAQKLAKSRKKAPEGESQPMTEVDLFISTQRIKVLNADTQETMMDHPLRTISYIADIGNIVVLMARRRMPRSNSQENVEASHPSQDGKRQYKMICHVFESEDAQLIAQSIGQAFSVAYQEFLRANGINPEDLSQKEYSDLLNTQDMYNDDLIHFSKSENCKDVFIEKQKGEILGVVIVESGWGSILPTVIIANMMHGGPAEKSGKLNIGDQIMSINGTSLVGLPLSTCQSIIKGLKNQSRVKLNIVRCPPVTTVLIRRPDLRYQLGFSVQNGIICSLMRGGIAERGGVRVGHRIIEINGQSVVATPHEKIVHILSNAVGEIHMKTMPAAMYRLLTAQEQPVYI
How it was run: as §1

[3] = target: T3, PDZ protein (GST-PDZ fusion) (Homo sapiens, UniProt Q86UL8)
T3 construct: made in house; host or cells: E. coli (DH5alpha, BL21 or JM109)
How it was run: as §1

[4] = target: T4, PDZ protein (GST-PDZ fusion) (Homo sapiens, UniProt Q13796); details: PDZ hAPXL, PDZ Domain 1
T4 construct: made in house; host or cells: E. coli (DH5alpha, BL21 or JM109)
How it was run: as §1

[5] = PDZ atrophin-1 interacting Protein (Atrophin-1 Inter. Prot.), PDZ Domain 1
[6] = PDZ atrophin-1 interacting Protein, PDZ Domain 1
[7] = PDZ Atrophin-1 Inter. Prot., PDZ Domain 5
[8] = PDZ atrophin-1 interacting Protein, PDZ Domain 3

T3 sequence (Q86UL8 whole entry, the tested form may be a part): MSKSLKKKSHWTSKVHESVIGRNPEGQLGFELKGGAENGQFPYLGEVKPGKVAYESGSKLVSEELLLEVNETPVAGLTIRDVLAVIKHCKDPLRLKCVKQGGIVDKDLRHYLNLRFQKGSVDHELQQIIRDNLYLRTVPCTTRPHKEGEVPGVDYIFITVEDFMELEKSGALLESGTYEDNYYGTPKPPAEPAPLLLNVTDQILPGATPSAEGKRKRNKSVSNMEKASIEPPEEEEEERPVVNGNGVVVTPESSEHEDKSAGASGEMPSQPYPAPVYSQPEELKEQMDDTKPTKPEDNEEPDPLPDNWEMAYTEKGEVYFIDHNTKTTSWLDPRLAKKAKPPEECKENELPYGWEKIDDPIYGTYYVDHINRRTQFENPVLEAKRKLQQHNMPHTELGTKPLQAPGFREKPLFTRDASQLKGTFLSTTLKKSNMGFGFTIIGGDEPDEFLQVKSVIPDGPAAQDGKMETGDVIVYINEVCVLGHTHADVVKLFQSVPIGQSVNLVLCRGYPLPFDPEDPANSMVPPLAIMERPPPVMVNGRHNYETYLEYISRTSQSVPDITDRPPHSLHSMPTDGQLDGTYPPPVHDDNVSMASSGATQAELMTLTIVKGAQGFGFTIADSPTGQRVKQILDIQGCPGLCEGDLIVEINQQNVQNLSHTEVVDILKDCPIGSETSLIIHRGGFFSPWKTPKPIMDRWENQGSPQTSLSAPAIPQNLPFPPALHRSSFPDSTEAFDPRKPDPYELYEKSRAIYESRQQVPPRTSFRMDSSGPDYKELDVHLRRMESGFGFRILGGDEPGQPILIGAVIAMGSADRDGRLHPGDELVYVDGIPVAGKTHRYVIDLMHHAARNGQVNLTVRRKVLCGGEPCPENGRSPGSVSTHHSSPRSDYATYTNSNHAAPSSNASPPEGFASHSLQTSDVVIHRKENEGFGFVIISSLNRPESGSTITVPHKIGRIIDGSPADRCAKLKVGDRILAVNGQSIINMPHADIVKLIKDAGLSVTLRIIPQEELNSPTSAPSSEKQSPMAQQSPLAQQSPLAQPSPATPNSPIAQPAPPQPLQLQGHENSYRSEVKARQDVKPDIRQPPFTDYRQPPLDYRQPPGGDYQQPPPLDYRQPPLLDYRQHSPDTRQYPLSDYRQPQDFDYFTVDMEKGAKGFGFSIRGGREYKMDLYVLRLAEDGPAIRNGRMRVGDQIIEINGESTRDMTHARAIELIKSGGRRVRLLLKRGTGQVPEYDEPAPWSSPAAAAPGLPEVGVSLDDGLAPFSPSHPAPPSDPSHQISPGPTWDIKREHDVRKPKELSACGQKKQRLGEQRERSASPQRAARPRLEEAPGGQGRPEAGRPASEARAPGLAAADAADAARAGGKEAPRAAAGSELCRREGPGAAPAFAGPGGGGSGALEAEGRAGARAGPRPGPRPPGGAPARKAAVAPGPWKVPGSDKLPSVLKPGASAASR
T4 sequence (Q13796 whole entry, the tested form may be a part): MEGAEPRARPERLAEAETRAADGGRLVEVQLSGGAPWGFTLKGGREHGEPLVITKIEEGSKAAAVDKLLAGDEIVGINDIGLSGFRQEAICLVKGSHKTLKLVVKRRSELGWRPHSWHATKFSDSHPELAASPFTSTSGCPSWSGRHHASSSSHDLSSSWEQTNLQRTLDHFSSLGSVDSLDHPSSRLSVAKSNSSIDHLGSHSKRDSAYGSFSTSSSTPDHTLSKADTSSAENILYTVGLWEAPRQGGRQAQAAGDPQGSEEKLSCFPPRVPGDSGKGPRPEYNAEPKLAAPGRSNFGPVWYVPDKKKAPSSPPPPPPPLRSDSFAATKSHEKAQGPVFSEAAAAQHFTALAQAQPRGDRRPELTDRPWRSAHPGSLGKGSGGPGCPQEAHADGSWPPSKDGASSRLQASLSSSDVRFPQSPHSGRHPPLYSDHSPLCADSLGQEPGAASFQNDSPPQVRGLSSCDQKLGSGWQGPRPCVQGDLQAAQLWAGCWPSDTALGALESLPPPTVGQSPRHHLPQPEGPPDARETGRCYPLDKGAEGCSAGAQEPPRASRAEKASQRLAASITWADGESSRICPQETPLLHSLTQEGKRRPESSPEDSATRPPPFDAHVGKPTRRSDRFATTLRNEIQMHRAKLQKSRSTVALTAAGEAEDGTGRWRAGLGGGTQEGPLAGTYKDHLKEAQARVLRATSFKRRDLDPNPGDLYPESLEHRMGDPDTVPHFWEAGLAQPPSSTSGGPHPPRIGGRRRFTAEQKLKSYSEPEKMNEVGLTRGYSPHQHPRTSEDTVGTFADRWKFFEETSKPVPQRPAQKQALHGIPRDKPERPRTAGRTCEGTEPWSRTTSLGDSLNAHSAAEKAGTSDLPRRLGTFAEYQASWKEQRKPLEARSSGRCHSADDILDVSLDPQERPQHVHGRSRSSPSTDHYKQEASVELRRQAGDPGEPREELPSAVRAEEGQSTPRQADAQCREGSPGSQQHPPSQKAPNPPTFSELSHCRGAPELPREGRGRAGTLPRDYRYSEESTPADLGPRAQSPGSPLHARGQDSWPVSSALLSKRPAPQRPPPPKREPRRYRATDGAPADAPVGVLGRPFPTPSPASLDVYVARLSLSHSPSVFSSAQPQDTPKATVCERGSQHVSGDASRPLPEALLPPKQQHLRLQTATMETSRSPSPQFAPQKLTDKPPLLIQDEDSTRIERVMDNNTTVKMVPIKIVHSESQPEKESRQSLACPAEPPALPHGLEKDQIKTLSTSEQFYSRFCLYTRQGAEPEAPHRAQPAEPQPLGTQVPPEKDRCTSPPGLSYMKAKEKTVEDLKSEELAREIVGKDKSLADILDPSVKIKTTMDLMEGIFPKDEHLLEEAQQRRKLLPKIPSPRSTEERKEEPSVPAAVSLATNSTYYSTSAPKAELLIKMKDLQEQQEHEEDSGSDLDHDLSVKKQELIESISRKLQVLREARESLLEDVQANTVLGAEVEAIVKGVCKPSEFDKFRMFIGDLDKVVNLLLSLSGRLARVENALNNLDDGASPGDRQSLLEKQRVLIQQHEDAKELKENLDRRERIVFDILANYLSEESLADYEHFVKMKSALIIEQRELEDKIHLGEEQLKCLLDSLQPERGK
T1 sequence (Q8NI35 whole entry, the tested form may be a part): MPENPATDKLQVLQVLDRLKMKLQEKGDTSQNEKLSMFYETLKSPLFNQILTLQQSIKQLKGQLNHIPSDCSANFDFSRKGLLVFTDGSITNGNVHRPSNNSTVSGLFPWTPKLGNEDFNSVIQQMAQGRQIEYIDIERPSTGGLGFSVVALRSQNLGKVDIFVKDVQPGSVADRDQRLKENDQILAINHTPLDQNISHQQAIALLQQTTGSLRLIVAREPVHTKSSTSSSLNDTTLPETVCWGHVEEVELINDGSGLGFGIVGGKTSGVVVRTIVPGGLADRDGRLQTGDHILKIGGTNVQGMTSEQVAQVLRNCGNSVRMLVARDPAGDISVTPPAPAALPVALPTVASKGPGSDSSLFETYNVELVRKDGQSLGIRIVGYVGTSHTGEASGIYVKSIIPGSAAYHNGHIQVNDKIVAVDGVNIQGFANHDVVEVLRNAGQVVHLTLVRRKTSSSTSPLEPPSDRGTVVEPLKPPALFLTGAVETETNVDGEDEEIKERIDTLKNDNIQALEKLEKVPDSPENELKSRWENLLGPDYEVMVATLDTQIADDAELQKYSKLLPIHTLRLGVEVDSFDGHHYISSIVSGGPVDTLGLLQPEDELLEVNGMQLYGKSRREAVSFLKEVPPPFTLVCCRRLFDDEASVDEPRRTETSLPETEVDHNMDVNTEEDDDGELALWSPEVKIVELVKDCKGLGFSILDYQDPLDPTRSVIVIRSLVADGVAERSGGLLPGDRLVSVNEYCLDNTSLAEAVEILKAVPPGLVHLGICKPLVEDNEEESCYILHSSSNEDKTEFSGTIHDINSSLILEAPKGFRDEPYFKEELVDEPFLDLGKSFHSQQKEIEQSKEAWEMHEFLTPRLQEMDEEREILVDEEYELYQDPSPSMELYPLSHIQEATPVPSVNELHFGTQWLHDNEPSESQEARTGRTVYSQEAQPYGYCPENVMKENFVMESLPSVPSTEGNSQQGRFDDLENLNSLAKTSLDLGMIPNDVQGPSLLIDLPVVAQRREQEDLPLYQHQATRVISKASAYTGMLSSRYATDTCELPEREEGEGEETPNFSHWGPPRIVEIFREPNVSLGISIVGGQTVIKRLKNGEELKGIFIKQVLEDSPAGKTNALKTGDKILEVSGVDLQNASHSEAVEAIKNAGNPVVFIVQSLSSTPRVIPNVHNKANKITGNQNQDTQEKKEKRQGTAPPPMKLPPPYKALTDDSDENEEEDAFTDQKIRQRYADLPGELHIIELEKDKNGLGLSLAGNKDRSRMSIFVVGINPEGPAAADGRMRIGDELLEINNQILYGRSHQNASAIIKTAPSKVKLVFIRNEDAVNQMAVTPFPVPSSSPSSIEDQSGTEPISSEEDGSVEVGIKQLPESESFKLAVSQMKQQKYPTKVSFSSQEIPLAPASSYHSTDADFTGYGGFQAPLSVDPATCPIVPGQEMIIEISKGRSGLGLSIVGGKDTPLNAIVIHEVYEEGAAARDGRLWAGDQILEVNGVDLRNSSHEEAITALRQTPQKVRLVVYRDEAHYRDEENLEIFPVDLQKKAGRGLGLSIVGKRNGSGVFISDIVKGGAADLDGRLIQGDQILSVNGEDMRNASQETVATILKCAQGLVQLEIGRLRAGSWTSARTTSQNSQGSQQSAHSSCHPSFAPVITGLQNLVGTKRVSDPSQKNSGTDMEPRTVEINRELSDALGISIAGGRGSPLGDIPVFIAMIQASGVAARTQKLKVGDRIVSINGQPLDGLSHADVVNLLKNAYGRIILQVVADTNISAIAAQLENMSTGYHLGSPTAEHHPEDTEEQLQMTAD

Molecule	Classification ([1]; PDZ Domain 8)	Classification ([2]; PDZ Mint 1, PDZ Domain 2)	Classification ([2]; PDZ Mint 1, PDZ Domain 1, 2)	Classification [4]	Classification [3, 7]	other results
CC(C)C[C@H](NC(=O)[C@H](CCCNC(=N)N)NC(=O)CNC(=O)CNC(=O)[C@H](CCCNC(=N)N)NC(=O)[C@H](C)NC(=O)[C@@H]1CCCN1C(=O)[C@H](CCCNC(=N)N)NC(=O)CNC(=O)CNC(=O)[C@@H](NC(=O)[C@H](C)NC(=O)CCCC[C@@H]1SC[C@@H]2NC(=O)N[C@@H]21)C(C)C)C(=O)N[C@@H](CCC(N)=O)C(=O)NCC(=O)N[C@@H](CCCNC(=N)N)C(=O)N[C@@H](CCCNC(=N)N)C(=O)N[C@@H](CCC(N)=O)C(=O)N[C@H](C(=O)N[C@@H](CCC(N)=O)C(=O)N[C@H](C(=O)O)C(C)C)[C@@H](C)O [HPV E6 58 (modified)] (Biotin-AVGGRPARGGRLQGRRQTQV-OH; C-terminus assumed)	4 (A450 nm 3-4)	1 (A450 nm 0-1)	–	–	–	Classification [3, 5]: 5 (A450 nm of 4 more than 2× repeated)
CC[C@H](C)[C@H](NC(=O)[C@H](C)NC(=O)[C@H](CC(C)C)NC(=O)[C@H](Cc1c[nH]c2ccccc12)NC(=O)[C@H](Cc1c[nH]cn1)NC(=O)[C@H](CCC(N)=O)NC(=O)[C@H](CC(C)C)NC(=O)[C@H](CCC(N)=O)NC(=O)[C@H](Cc1ccccc1)NC(=O)[C@H](CCC(N)=O)NC(=O)[C@H](CCCNC(=N)N)NC(=O)[C@@H](NC(=O)[C@H](CC(=O)O)NC(=O)[C@H](CCCNC(=N)N)NC(=O)[C@H](CCC(N)=O)NC(=O)[C@H](C)NC(=O)[C@@H](NC(=O)[C@H](CC(C)C)NC(=O)[C@H](Cc1c[nH]cn1)NC(=O)[C@H](Cc1c[nH]cn1)NC(=O)CCCC[C@@H]1SC[C@@H]2NC(=O)N[C@@H]21)C(C)C)[C@@H](C)CC)C(=O)O [noradrenaline transporter] (Biotin-HHLVAQRDIRQFQLQHWLAI-OH; C-terminus assumed)	–	–	3 (A450 nm 2-3)	–	–	Classification ([1]; PDZ Domain 3): 3 (A450 nm 2-3)
CC[C@H](C)[C@H](NC(=O)[C@H](CC(=O)O)NC(=O)[C@H](CCC(=O)O)NC(=O)[C@H](CCCNC(=N)N)NC(=O)[C@@H](NC(=O)CCCC[C@@H]1SC[C@@H]2NC(=O)N[C@@H]21)[C@@H](C)O)C(=O)N[C@@H](Cc1ccc(O)cc1)C(=O)N[C@H](C(=O)N[C@@H](CC(N)=O)C(=O)N[C@@H](Cc1ccc(O)cc1)C(=O)N1CCC[C@H]1C(=O)N[C@H](C(=O)N[C@@H](Cc1ccccc1)C(=O)N[C@@H](CO)C(=O)N[C@@H](CCCNC(=N)N)C(=O)N[C@@H](CCCNC(=N)N)C(=O)N1CCC[C@H]1C(=O)N[C@@H](CCCCN)C(=O)N[C@H](C(=O)N[C@@H](CCCNC(=N)N)C(=O)N[C@H](C(=O)O)C(C)C)[C@@H](C)O)[C@@H](C)O)C(C)C [DNAM-1] (Biotin-TREDIYVNYPTFSRRPKTRV-OH; C-terminus assumed)	5 (A450 nm of 4 more than 2× repeated)	–	–	–	–	Classification [3, 6]: 3 (A450 nm 2-3)
A2AC_HUMAN (Modified) (Biotin-DFRPSFKHILFRRARRGFRQ; not fully specified)	–	3 (A450 nm 2-3)	–	3 (A450 nm 2-3)	–	–
CC(C)C[C@H](NC(=O)CNC(=O)[C@@H](NC(=O)[C@H](CO)NC(=O)[C@H](CC(N)=O)NC(=O)[C@H](Cc1ccccc1)NC(=O)CNC(=O)[C@H](C)NC(=O)[C@H](C)NC(=O)[C@H](Cc1ccccc1)NC(=O)[C@@H](NC(=O)CCCC[C@@H]1SC[C@@H]2NC(=O)N[C@@H]21)[C@@H](C)O)[C@@H](C)O)C(=O)N1CCC[C@H]1C(=O)N[C@@H](Cc1c[nH]cn1)C(=O)N[C@@H](CO)C(=O)N[C@H](C(=O)N[C@H](C(=O)N[C@@H](CCCNC(=N)N)C(=O)N[C@H](C(=O)O)C(C)C)[C@@H](C)O)[C@@H](C)O [Neuroligin] (Biotin-TFAAGFNSTGLPHSTTRV-OH; C-terminus assumed)	1 (A450 nm 0-1)	–	1 (A450 nm 0-1)	–	–	Classification [3, 6]: 2 (A450 nm 1-2)
CC[C@H](C)[C@H](NC(=O)[C@H](CCC(N)=O)NC(=O)[C@@H](NC(=O)[C@H](Cc1c[nH]cn1)NC(=O)[C@H](CCC(N)=O)NC(=O)[C@H](CC(=O)O)NC(=O)[C@H](CCC(=O)O)NC(=O)[C@H](CC(=O)O)NC(=O)[C@H](Cc1ccccc1)NC(=O)[C@@H]1CCCN1C(=O)[C@H](CCC(=O)O)NC(=O)[C@H](CC(N)=O)NC(=O)[C@H](CCC(=O)O)NC(=O)[C@@H]1CCCN1C(=O)[C@H](CC(=O)O)NC(=O)[C@H](CO)NC(=O)[C@H](CC(=O)O)NC(=O)CCCC[C@@H]1SC[C@@H]2NC(=O)N[C@@H]21)[C@@H](C)O)C(=O)N[C@H](C(=O)N[C@@H](CCCCN)C(=O)N[C@H](C(=O)O)C(C)C)[C@@H](C)O [PTEN]	1 (A450 nm 0-1)	1 (A450 nm 0-1)	1 (A450 nm 0-1)	–	2 (A450 nm 1-2)	–
PYSELNYETSHYPASPDSWV (Biotin-PYSELNYETSHYPASPDSWV) [catenin - delta 2]	2 (A450 nm 1-2)	3 (A450 nm 2-3)	5 (A450 nm of 4 more than 2× repeated)	–	5 (A450 nm of 4 more than 2× repeated)	Classification ([1]; PDZ Domain 5): 1 (A450 nm 0-1); Classification [3, 8]: 1 (A450 nm 0-1)
ALVLIAFCIIRRRPSAYQAL (Biotin-ALVLIAFCIIRRRPSAYQAL) [CD68]	–	2 (A450 nm 1-2)	1 (A450 nm 0-1)	2 (A450 nm 1-2)	–	–
CC[C@H](C)[C@H](NC(=O)[C@H](Cc1ccc(O)cc1)NC(=O)[C@H](CC(C)C)NC(=O)[C@H](CCC(N)=O)NC(=O)[C@H](Cc1c[nH]cn1)NC(=O)[C@H](CO)NC(=O)[C@H](C)NC(=O)[C@H](CC(C)C)NC(=O)[C@@H](NC(=O)[C@H](CC(=O)O)NC(=O)[C@H](CCSC)NC(=O)[C@H](Cc1ccccc1)NC(=O)[C@@H]1CCCN1C(=O)[C@H](CCCNC(=N)N)NC(=O)[C@@H](NC(=O)[C@H](CC(C)C)NC(=O)[C@H](CC(N)=O)NC(=O)[C@H](CC(=O)O)NC(=O)[C@@H](NC(=O)[C@H](CO)NC(=O)CCCC[C@@H]1SC[C@@H]2NC(=O)N[C@@H]21)[C@@H](C)O)C(C)C)[C@@H](C)O)C(=O)O [presenilin-2] (Biotin-STDNLVRPFMDTLASHQLYI-OH; C-terminus assumed)	–	–	3 (A450 nm 2-3)	–	1 (A450 nm 0-1)	Classification ([1]; PDZ Domain 3): 1 (A450 nm 0-1)
PPATPSPRLALPAHHNATRL (Biotin-PPATPSPRLALPAHHNATRL) [Na+/Pi cotransporter 2]	1 (A450 nm 0-1)	1 (A450 nm 0-1)	–	1 (A450 nm 0-1)	–	–
CC(C)C[C@H](NC(=O)[C@H](C)NC(=O)[C@@H](NC(=O)[C@H](CCC(=O)O)NC(=O)[C@H](CCCNC(=N)N)NC(=O)[C@H](CCCNC(=N)N)NC(=O)CNC(=O)[C@H](CCC(N)=O)NC(=O)[C@H](CC(C)C)NC(=O)[C@H](CCCNC(=N)N)NC(=O)CNC(=O)CNC(=O)[C@H](CCCNC(=N)N)NC(=O)[C@H](C)NC(=O)[C@H](CO)NC(=O)[C@H](CCCNC(=N)N)NC(=O)CNC(=O)CNC(=O)[C@H](C)NC(=O)[C@H](C)NC(=O)CCCC[C@@H]1SC[C@@H]2NC(=O)N[C@@H]21)[C@@H](C)O)C(=O)O [HPV E6 33 (modified)] (Biotin-AAGGRSARGGRLQGRRETAL-OH; C-terminus assumed)	–	1 (A450 nm 0-1)	–	3 (A450 nm 2-3)	1 (A450 nm 0-1)	Classification [3, 5]: 4 (A450 nm 3-4)
ISGTPTSTMVHGMTSSSSVV (Biotin-ISGTPTSTMVHGMTSSSSVV) [Clasp-2]	1 (A450 nm 0-1)	–	1 (A450 nm 0-1)	–	–	–
CC[C@H](C)[C@H](NC(=O)[C@H](CCC(N)=O)NC(=O)CCCC[C@@H]1SC[C@@H]2NC(=O)N[C@@H]21)C(=O)N[C@@H](CO)C(=O)N1CCC[C@H]1C(=O)NCC(=O)NCC(=O)N[C@@H](CC(C)C)C(=O)N[C@@H](CCC(=O)O)C(=O)N1CCC[C@H]1C(=O)N1CCC[C@H]1C(=O)N[C@@H](CO)C(=O)N[C@@H](CCC(=O)O)C(=O)N[C@@H](CCCCN)C(=O)N[C@@H](Cc1c[nH]cn1)C(=O)N[C@@H](Cc1ccccc1)C(=O)N[C@@H](CCCNC(=N)N)C(=O)N[C@@H](CCC(=O)O)C(=O)N[C@H](C(=O)N[C@@H](CCC(=O)O)C(=O)N[C@H](C(=O)O)C(C)C)[C@@H](C)O [Tax]	–	–	–	–	3 (A450 nm 2-3)	Classification ([1]; PDZ Domain 3): 1 (A450 nm 0-1); Classification [3, 5]: 5 (A450 nm of 4 more than 2× repeated); Classification ([3]; PDZ atrophin-1 interacting Protein, PDZ Domain 2): 1 (A450 nm 0-1); Classification [3, 8]: 1 (A450 nm 0-1)
